In publication PMC9505425, “Targeting of the Mitochondrial TET1 Protein by Pyrrolo[3,2-b]pyrrole Chelators” (International Journal of Molecular Sciences, 2022):
Values joined by “and” are separate entries in the source; they are usually repeats but may differ in a detail not shown here. Equal entries are not always repeated.

Legend:
H-1299 cells = assay: MTT cytotoxicity assay, H-1299; format: cell-based, human
Experimental: (§1) The effects of the tested compounds 1–6 on HF-P4, U-118 MG, H1299, BT-20, and Caov-3 cell lines were evaluated by the MTT assay during 48 h treatment (Table 2 and Tables S2–S31). In all tested compounds, we recognized a difference in cytotoxicity between healthy cells (HF-P4) and cancer cell lines (BT-20, Caov-3, and H-1299). […] In the case of ovarian cancer, the authors discovered oncogenic and poor prognosis roles of TET1 in epithelial ovarian carcinoma (EOC). TET1 is believed to demethylate the epigenome and activate numerous oncogenic pathways in EOC. The aforementioned study presents a new mechanism where TET1 contributes to tumor development through collaboration with CK2α [21]. The overexpression of the TET1 protein was also found in triple negative breast cancer and was associated with an activation of PI3K/mTOR pathway and decreased overall survival.
(§2) A human glioblastoma cell line (U118-MG) and a human non-small-cell lung carcinoma cell line (H1299) were used for the cytotoxicity assay (MTT). Both cell lines were generously supplied by Dr. M. Masařik, PhD, Department of Pathological physiology, Masaryk University, Czech Republic. U118-MG cells were cultivated under standard conditions in Dulbecco’s modified Eagle’s medium (ATCC, Manassas, VA, USA) supplemented with 10% FBS and streptomycin (100 μg/mL) at 37 °C at a 5% CO2 atmosphere. H1299 cells were cultivated under standard conditions in RPMI 1640 (BioTech, Prague, Czech Republic) medium supplemented with 10% FBS and streptomycin (100 μg/mL) at 37 °C at a 5% CO2 atmosphere.
(§3) For the cytotoxicity assay, we used the following cell lines: human glioblastoma cell line U118-MG, human mammary gland/breast cell line BT-20, human ovary adenocarcinoma cell line Caov-3, and non-small-cell lung carcinoma H-1299. As previously mentioned, these cell lines contain a high level of the TET1 protein, which corresponds to a lower overall survival. In addition to these cell cultures, we used the human dermal fibroblast cell line HF-P4 as a healthy control. Determination of cytotoxicity was performed using the MTT [3-(4,5-dimethylthiazol-2-yl)-2,5-diphenyltetrazolium bromide] colorimetric assay. Viable cells from each cell line were cultured in 96-well plates (VWR, Stříbrná Skalice, Czech Republic) at a density of 1.0 × 10^5 cells per well and allowed to grow for 24 h in 200 μL of recommended medium. After a 1-day incubation, the medium was replaced with solutions of compounds 1–6 at concentration ranges of 0.1–20 μM. Each concentration was measured four times within one test, and the entire test was repeated three times. Tested compounds 1–6 were dissolved in DMSO and then diluted with corresponding medium to a final volume of 200 μL (maximum 1% DMSO). After 48 h exposure, cells were treated with 175 μL of MTT solution (P-LAB, Prague, Czech Republic) for 2 h. In the next step, MTT solution was removed, and 125 μL of DMSO (Penta, Prague, Czech Republic) was added to solubilize dark crystals of formazan formed in intact cells, and absorbance was measured at 570 nm by the enzyme-linked immunoabsorbent assay reader Infinite® 200 PRO (Tecan, Männedorf, Switzerland). The final DMSO concentration was smaller than 1% (v/v). The absorbance of untreated cells was considered 100%, and IC50 values were calculated by the GraphPad Prism 8 software. As a parameter for cytotoxicity, we used a concentration that inhibits 50% of cell growth (IC50).

U-118 MG cells = assay: MTT cytotoxicity assay, U-118 MG; format: cell-based, human; details: 48 h
Experimental: as §1, §2, §3

BT-20 cells = assay: MTT cytotoxicity assay, BT-20; format: cell-based, human
Experimental: as §1
The human mammary gland/breast cell line (BT-20), purchased from ATCC (BT-20 (ATCC® HTB-19™), Manassas, VA, USA), was used for the cytotoxicity assay (MTT), and BT-20 cells were cultivated under standard conditions in Eagle’s minimum essential medium (ATCC, Manassas, VA, USA) supplemented with 10% FBS and streptomycin (100 μg/mL) at 37 °C at a 5% CO2 atmosphere.
as §3

In the case of Cc1ccc(-n2c(-c3ccc(C(=O)NN)cc3)cc3c2cc(-c2ccc(C(=O)NN)cc2)n3-c2ccc(C)cc2)cc1 [Compound 1], the Cell viability % (H-1299 cells; H-1299, 100 nM, 48 h, repeats, 0.1 µM) is reported as 74.42% and 77.2%, the Cell viability % (H-1299 cells; H-1299, 500 nM, 48 h, repeats, 0.5 µM) is reported as 114.5756% and 80.35% and 108.7959% and the Cell viability % (H-1299 cells; H-1299, 750 nM, 48 h, repeats, 0.75 µM) is reported as 97.3% and 84.13% and 122.0664%. The Cell viability % (H-1299 cells; H-1299, 1 uM, 48 h, repeats, 1 µM) was 81.23% and 63.3%, the Cell viability % (H-1299 cells; H-1299, 2.5 uM, 48 h, repeats, 2.5 µM) was 76.07% and 72.39% and the Cell viability % (H-1299 cells; H-1299, 5 uM, 48 h, repeats, 5 µM) was 61.74% and 69.23%. The Cell viability % (H-1299 cells; H-1299, 7.5 uM, 48 h, repeats, 7.5 µM) was 36.84% and 36.67%, the Cell viability % (H-1299 cells; H-1299, 10 uM, 48 h, repeats, 10 µM) was 36.64% and 31.8986% and the Cell viability % (H-1299 cells; H-1299, 15 uM, 48 h, repeats, 15 µM) was 23.04% and 23.96%. The Cell viability % (H-1299 cells; H-1299, 20 uM, 48 h, repeats, 20 µM) was 17.01% and 14.68%, the viability at 0.1 µM (H-1299 cells; Homo sapiens, NCI-H1299, 48 h, H-1299, 100 nM, repeats, read-out: Cell viability %) was 86.7% and the viability at 1 µM (H-1299 cells; Homo sapiens, NCI-H1299, 48 h, H-1299, 1 uM, repeats, read-out: Cell viability %) was 69.9%. It also gave a viability at 2.5 µM (H-1299 cells; Homo sapiens, NCI-H1299, 48 h, H-1299, 2.5 uM, repeats, read-out: Cell viability %) of 68%, a viability at 5 µM (H-1299 cells; Homo sapiens, NCI-H1299, 48 h, H-1299, 5 uM, repeats, read-out: Cell viability %) of 57.7% and a viability at 7.5 µM (H-1299 cells; Homo sapiens, NCI-H1299, 48 h, H-1299, 7.5 uM, repeats, read-out: Cell viability %) of 38.4%. It also gave a viability at 10 µM (H-1299 cells; Homo sapiens, NCI-H1299, 48 h, H-1299, 10 uM, repeats, read-out: Cell viability %) of 35.2%, a viability at 15 µM (H-1299 cells; Homo sapiens, NCI-H1299, 48 h, H-1299, 15 uM, repeats, read-out: Cell viability %) of 23.9% and a viability at 20 µM (H-1299 cells; Homo sapiens, NCI-H1299, 48 h, H-1299, 20 uM, repeats, read-out: Cell viability %) of 19.2%. For the same compound, the IC50 (H-1299 cells; Homo sapiens, NCI-H1299, MTT, 48 h) was 6.89 µM, the viability at 0.1 µM (U-118 MG cells; Homo sapiens, U-118-MG, U-118 MG, 100 nM, repeats, read-out: Cell viability %) was 74.9% and the viability at 0.5 µM (U-118 MG cells; Homo sapiens, U-118-MG, U-118 MG, 500 nM, repeats, read-out: Cell viability %) was 81.2%. The viability at 0.75 µM (U-118 MG cells; Homo sapiens, U-118-MG, U-118 MG, 750 nM, repeats, read-out: Cell viability %) was 75.3%, the viability at 1 µM (U-118 MG cells; Homo sapiens, U-118-MG, U-118 MG, 1 uM, repeats, read-out: Cell viability %) was 61.6% and the viability at 2.5 µM (U-118 MG cells; Homo sapiens, U-118-MG, U-118 MG, 2.5 uM, repeats, read-out: Cell viability %) was 59.8%. It also gave a viability at 5 µM (U-118 MG cells; Homo sapiens, U-118-MG, U-118 MG, 5 uM, repeats, read-out: Cell viability %) of 64.5%, a viability at 7.5 µM (U-118 MG cells; Homo sapiens, U-118-MG, U-118 MG, 7.5 uM, repeats, read-out: Cell viability %) of 65.9% and a viability at 10 µM (U-118 MG cells; Homo sapiens, U-118-MG, U-118 MG, 10 uM, repeats, read-out: Cell viability %) of 49.8%. It also gave a viability at 15 µM (U-118 MG cells; Homo sapiens, U-118-MG, U-118 MG, 15 uM, repeats, read-out: Cell viability %) of 52.9%, a viability at 20 µM (U-118 MG cells; Homo sapiens, U-118-MG, U-118 MG, 20 uM, repeats, read-out: Cell viability %) of 32.4% and an IC50 (U-118 MG cells; Homo sapiens, U-118-MG, MTT) of over 20 µM. The Cell viability % (U-118 MG cells; U-118 MG, 100 nM, repeats, 0.1 µM) was 89.42% and 92.96%, the Cell viability % (U-118 MG cells; U-118 MG, 500 nM, repeats, 0.5 µM) was 77.57% and 78.28% and the Cell viability % (U-118 MG cells; U-118 MG, 750 nM, repeats, 0.75 µM) was 75.76% and 76.03%. The Cell viability % (U-118 MG cells; U-118 MG, 1 uM, repeats) was 65.25% and 66.5%, the Cell viability % (U-118 MG cells; U-118 MG, 2.5 uM, repeats) was 71.64% and 61.0448% and the Cell viability % (U-118 MG cells; U-118 MG, 5 uM, repeats) was 72.2848% and 61.2%. For the same compound, the Cell viability % (U-118 MG cells; U-118 MG, 7.5 uM, repeats) was 73.35% and 73.21%, the Cell viability % (U-118 MG cells; U-118 MG, 10 uM, repeats) was 65.4465% and 62.16% and the Cell viability % (U-118 MG cells; U-118 MG, 15 uM, repeats) was 49.75% and 52.18%. For the same compound, the Cell viability % (U-118 MG cells; U-118 MG, 20 uM, repeats) was 38.37% and 42.77%, the Cell viability % (BT-20 cells; BT-20, 100 nM, 48 h, repeats, 0.1 µM) was 100.0252% and 99.53% and the Cell viability % (BT-20 cells; BT-20, 500 nM, 48 h, repeats, 0.5 µM) was 106.1555% and 91.85%. For the same compound, the Cell viability % (BT-20 cells; BT-20, 750 nM, 48 h, repeats, 0.75 µM) was 98.6% and 95.52%, the Cell viability % (BT-20 cells; BT-20, 1 uM, 48 h, repeats, 1 µM) was 98.92% and 100.049% and the Cell viability % (BT-20 cells; BT-20, 2.5 uM, 48 h, repeats, 2.5 µM) was 55.65% and 54.6523%. For the same compound, the Cell viability % (BT-20 cells; BT-20, 5 uM, 48 h, repeats, 5 µM) was 56.31% and 56.39%, the Cell viability % (BT-20 cells; BT-20, 7.5 uM, 48 h, repeats, 7.5 µM) was 50.1262% and 42.238% and the Cell viability % (BT-20 cells; BT-20, 10 uM, 48 h, repeats, 10 µM) was 44.0939% and 37.78%. For the same compound, the Cell viability % (BT-20 cells; BT-20, 15 uM, 48 h, repeats, 15 µM) was 32.99% and 30.02%, the Cell viability % (BT-20 cells; BT-20, 20 uM, 48 h, repeats, 20 µM) was 18.85% and 15.23% and the viability at 0.1 µM (BT-20 cells; Homo sapiens, BT-20, 48 h, BT-20, 100 nM, repeats, read-out: Cell viability %) was 102%. The viability at 0.5 µM (BT-20 cells; Homo sapiens, BT-20, 48 h, BT-20, 500 nM, repeats, read-out: Cell viability %) was 87.8%, the viability at 0.75 µM (BT-20 cells; Homo sapiens, BT-20, 48 h, BT-20, 750 nM, repeats, read-out: Cell viability %) was 91.2% and the viability at 1 µM (BT-20 cells; Homo sapiens, BT-20, 48 h, BT-20, 1 uM, repeats, read-out: Cell viability %) was 103%. For the same compound, the viability at 2.5 µM (BT-20 cells; Homo sapiens, BT-20, 48 h, BT-20, 2.5 uM, repeats, read-out: Cell viability %) was 69.2%, the viability at 5 µM (BT-20 cells; Homo sapiens, BT-20, 48 h, BT-20, 5 uM, repeats, read-out: Cell viability %) was 56.8% and the viability at 7.5 µM (BT-20 cells; Homo sapiens, BT-20, 48 h, BT-20, 7.5 uM, repeats, read-out: Cell viability %) was 41.2%. For the same compound, the viability at 10 µM (BT-20 cells; Homo sapiens, BT-20, 48 h, BT-20, 10 uM, repeats, read-out: Cell viability %) was 41.5%, the viability at 15 µM (BT-20 cells; Homo sapiens, BT-20, 48 h, BT-20, 15 uM, repeats, read-out: Cell viability %) was 33.5% and the viability at 20 µM (BT-20 cells; Homo sapiens, BT-20, 48 h, BT-20, 20 uM, repeats, read-out: Cell viability %) was 19.8%. For the same compound, the IC50 (BT-20 cells; Homo sapiens, BT-20, MTT, 48 h) was 5.94 µM and the melting point was 312 to 313 °C.
